Measured values taken from patent US4683198A, “Novel maltose dehydrogenase, process for its production, and analytical method using the same” (Toyo Jozo Kabushiki Kaisha, priority 1983, dated 1987).

Biological target: T1, amylase (Homo sapiens, UniProt P0DUB6)
T1 construct: 500-fold-diluted saliva (a specimen containing amylase, 20 μl); from tissue; host or cells: saliva, 500-fold diluted
T1 sequence (P0DUB6 16-511): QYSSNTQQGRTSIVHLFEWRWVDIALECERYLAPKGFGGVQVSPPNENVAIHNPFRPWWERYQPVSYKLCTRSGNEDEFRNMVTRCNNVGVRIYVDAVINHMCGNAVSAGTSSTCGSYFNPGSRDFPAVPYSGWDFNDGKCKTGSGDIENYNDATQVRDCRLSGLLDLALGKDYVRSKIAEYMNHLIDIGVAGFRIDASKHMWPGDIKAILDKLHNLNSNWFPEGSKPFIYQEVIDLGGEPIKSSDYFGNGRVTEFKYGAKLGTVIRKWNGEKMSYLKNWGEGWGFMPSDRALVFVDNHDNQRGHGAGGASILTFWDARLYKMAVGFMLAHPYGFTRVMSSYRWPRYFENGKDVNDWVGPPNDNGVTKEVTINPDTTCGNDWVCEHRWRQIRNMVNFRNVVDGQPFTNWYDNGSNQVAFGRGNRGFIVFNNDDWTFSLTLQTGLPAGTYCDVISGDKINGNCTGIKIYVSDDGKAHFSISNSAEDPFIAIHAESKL
Assay: Salivary amylase assay with modified oligosaccharide substrates (Example 3)
Assay type: biochemical
Conditions: 5 mM substrate; 500-fold-diluted saliva; 37° C.
Method: Aliquots of the reaction mixture (each 1 ml), in which 5 mM p-nitrophenylpentaoside or p-nitrophenylheptaoside was added to the same reaction mixture described in Example 2, in small test tubes, were pre-incubated at 37° C. Aliquots of 500-fold-diluted saliva (a specimen containing amylase, 20 μl) were added thereto and the mixtures were incubated for 5, 10 and 15 mins., respectively.

activity as compared with p-nitrophenylpentaoside: Three times stronger activity
Compound: O=[N+]([O-])c1ccc(OC2O[C@H](CO)[C@@H](O[C@H]3O[C@H](CO)[C@@H](O[C@H]4O[C@H](CO)[C@@H](O[C@H]5O[C@H](CO)[C@@H](O[C@H]6O[C@H](CO)[C@@H](O[C@H]7O[C@H](CO)[C@@H](O[C@H]8O[C@H](CO)[C@@H](O)[C@H](O)[C@H]8O)[C@H](O)[C@H]7O)[C@H](O)[C@H]6O)[C@H](O)[C@H]5O)[C@H](O)[C@H]4O)[C@H](O)[C@H]3O)[C@H](O)[C@H]2O)cc1 (stereo partly shown) [p-nitrophenylheptaoside]
